Measured values: US10487078B2, “Compositions and methods of targeting mutant K-RAS” (NantBio, Inc., priority 2015, dated 2019)
Where two headings read alike, the source gives them in different places.

Tests used:
[1] = target: K-Ras wild-type (Homo sapiens, UniProt P01116); experiment: G-LISA Ras activation assay, 293H cells transfected with Ras wild-type, EGF-stimulated; type: cell-based; settings: 1 hour treatment, 100 ng/ml EGF
Method: (§1) 293H cells were seeded in 6-wells at 0.6×10^6 cells per well and transfected next day with 5 μg of Ras wild-type, or G12C, G12D or G12V mutant DNA plasmid vector using transfection reagent Lipofectamine 3000. Next day cells were treated with 3.125-50 μM of Ras compounds for 1 hour. Wild-type transfected cells were subsequently treated with 100 ng/ml EGF for 2 minutes. Cells were washed once in ice-cold PBS, lysed in complete lysis buffer on ice, and processed by G-LISA according to Cytoskeleton protocol.
(§2) In-cell selectivity of the compounds presented herein against a specific K-ras mutant form can also be tested as shown in the following exemplary experiment. 293H cells were seeded in 6-wells and transfected next day with 5 μg of Ras wild-type, or G12C, G12D or G12V mutant DNA plasmid vector. Next day cells were treated with 3.125-50 μM of Ras compounds for 1 hour. Wild-type transfected cells were subsequently treated with 100 ng/ml EGF for 2 minutes. Cells were washed once in ice-cold PBS, lysed in complete lysis buffer on ice, and processed by G-LISA according to Cytoskeleton protocol. FIG. 1 depicts exemplary results.
as §1, with “In still further experiments, the inventors tested selected compounds in a G-LISA assay to compare IC50 values for wild-type and various mutant K-Ras (G12D, G12V) using the following general protocol: 293H” for “293H”

[2] = target: K-ras G12D (Homo sapiens, UniProt P01116, G12D); experiment: G-LISA Ras activation assay, 293H cells transfected with G12D mutant; type: cell-based; settings: for IC50: 1 hour treatment
Method in brief: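 293H cells transfected with WT, G12D or G12V K-Ras plasmid, next day exposed to 3.125–50 μM compound for 1 h. WT-transfected cells then stimulated with 100 ng/ml EGF for 2 min. Cells lysed on ice; active Ras measured by G-LISA.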

[3] = target: K-ras G12V (Homo sapiens, UniProt P01116, G12V); experiment: G-LISA Ras activation assay, 293H cells transfected with G12V mutant; type: cell-based; settings: 1 hour treatment
Method: as §1, §2
as §1, with “In still further experiments, the inventors tested selected compounds in a G-LISA assay to compare IC50 values for wild-type and various mutant K-Ras (G12D, G12V) using the following general protocol: 293H” for “293H”

[4] = tested on: Panc1 (G12D) cells; experiment: 72 hr cell viability (CellTiterBlue); type: cell-based; settings: GI50, 72 hr
Method: (§3) Viability assays were performed on exemplary compounds and Table 2 below lists exemplary results for selected compounds tested on wild type (Ishikawa) and various K-ras mutants (Panc1-G12D; Panc10.05-G12D; HCT116-G13D).
(§4) Cells are counted and seeded at 1000 cells/36 ul medium/well into 384-well microplates. Cells are returned to 37° C. CO2 incubator for 18 hr. Drug is made as 200× in DMSO and diluted into medium to 10×. To each well is added 4 ul 10× drug, and plates are returned to the incubator. Final assay DMSO concentration is 0.5%. After 72 hr, 8 ul CellTiterBlue (Promega) is added to each well. After 3 hr, fluorescence (Ex550/Em590) is determined on the Victor Plate Reader (Perkin Elmer). Assay range is determined by DMSO control (100% viability) and 100 uM tamoxifen (0% viability). GI50 values are calculated using Graphpad Prism.

[5] = tested on: Panc10.05 (G12D) cells; experiment: 72 hr cell viability (CellTiterBlue); type: cell-based; settings: GI50, 72 hr
Method: as §3, §4

[6] = tested on: Erk phosphorylation in Panc1 (G12D) cells; experiment: In-Cell Western Erk phosphorylation; type: cell-based; settings: EC50, one hour treatment; read-out: In-Cell Western Erk phosporylation Panc1 (G12D)
Method: (§5) In-cell phosphorylation assays for Erk and Akt were performed on various of the compounds and exemplary results are shown in Table 3 below using […] and Panc10.05 cell lines for G12D K-ras mutants.
(§6) Cells are seeded in complete medium into black sided, clear-bottom 384-well microplates at 3000 cells/[…]/well. Plates are returned to 37° C. CO2 incubator for 18 hr. Drug is made as 200× in DMSO and diluted into medium to 10×. To each well is added 4 ul 10× test article or controls, and plates are returned to the incubator. Final assay DMSO concentration is 0.5%. After one hour, cells are fixed in formaldehyde, rinsed & permeabilized with triton X-100, and blocked with BSA/Goat serum blocking solution. Primary phospho-Akt and phospho-ERK antibodies are added and plates are incubated overnight at 4° C. Plates are rinsed with Tween-20 wash buffer and secondary antibody (Goat anti-rabbit, Thermofisher) is added. After 2 hours, plates are rinsed in Tween-20 wash buffer, and then PBS. Plates are imaged on the Celigo (Nexcelom) and cellular fluorescence is quantitated. Full inhibition of phospho-Akt is achieved with 1 uM BEZ235 (Sellekchem), while full inhibition of phospho-ERK is achieved with 1 uM MEK Inhibitor II Calbiochem). EC50 values are calculated using Graphpad Prism.

[7] = tested on: Erk phosphorylation in Panc10.05 (G12D) cells; experiment: In-Cell Western Erk phosphorylation; type: cell-based; settings: EC50, one hour treatment; read-out: In-Cell Western Erk phosporylation Panc10.05 (G12D)
Method: as §5, §6

[8] = target: K-ras G12D (GTP) (Homo sapiens, UniProt P01116, G12D); experiment: SPR assay (surface plasmon resonance); type: binding; settings: 25° C., 8% DMSO
Method in brief: (§7)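 His-tagged K-ras (GDP- or GTP-bound) captured on Ni-NTA surface (4000 RU); running buffer 10 mM HEPES pH 7.4, 150 mM NaCl, 0.1% Tween-20, 1 mM MgCl2, 8% DMSO; 25° C, 50 μL/min. Compounds injected by Taylor diffusion gradient, buffer blanks double-referenced, kinetic/affinity model fitting.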

[9] = target: K-ras G12V (GTP) (Homo sapiens, UniProt P01116, G12V); experiment: SPR assay (surface plasmon resonance); type: binding; settings: 25° C., 8% DMSO
Method in brief: as §7

`Cc1nc(C)c(C(=O)Nc2nc(-c3ccc4[nH]c(=O)[nH]c4c3)cs2)s1` [Compound 4562] was tested. Which IC50 ([1]; Table 1, G-LISA, 293H transfected, read-out: IC50 (μM) Wild-type) did it give?
The IC50 was 0.5 µM.

And the IC50 ([1]; Table 5, IC50, 293H transfected, read-out: G-LISA (wild type))?
Its IC50 is 0.5 µM.

And the “In-cell selectivity among K-ras forms, G-LISA (FIG. 1)” value ([2]; 293H transfected with wild-type, G12C, G12D or G12V, 3.125-50 μM, 1 hour)?
The value was “pronounced selectivity towards the G12D mutant form”.

What about the “IC50 for G12D compared to the wild type, G-LISA (FIG. 1)” value ([2]; 293H transfected, 3.125-50 μM, 1 hour) of the same molecule?
The value was “lower IC50 as compared to the wild type”.

What about the IC50 ([2]; Table 1, G-LISA, 293H transfected, read-out: IC50 (μM) G12D) of the same molecule?
Its IC50 is 10 µM.

What about the IC50 ([2]; Table 5, IC50, 293H transfected, read-out: G-LISA (G12D)) of the same molecule?
The IC50 was 7 to 13 µM.

And the IC50 ([3]; Table 1, G-LISA, 293H transfected, read-out: IC50 (μM) G12V)?
The IC50 was 38 µM.

And the IC50 ([3]; Table 5, IC50, 293H transfected, read-out: G-LISA (G12V))?
The IC50 was 38 µM.

What about the IC50 [4] of the same molecule?
Its IC50 is 6 µM.

And the IC50 [5]?
The IC50 was 2 µM.

What about the EC50 [6] of the same molecule?
The EC50 was 5 µM.

What about the EC50 [7] of the same molecule?
The EC50 was 4 µM.

And the “SPR Assay G12D (GTP) Kd” value [8]?
Its value is “No binding/fit”.

And the “SPR Assay G12V (GTP) Rmax” value [9]?
Its value is “Rmax = 300000”.

What about the Kd ([9]; value in mM) of the same molecule?
The Kd was 10 mM.
